The record followed here is patent US20060194837A1, “Tetrahydroisoquinoline compounds” (priority 2004, published 2006).

As a reminder, the Ki is the equilibrium dissociation constant of an inhibitor or competing ligand from its target.

Molecules are shown by their SMILES. Where two headings read alike, the source gives them in different places.

One assay has as its target T1, human SERT (Homo sapiens, UniProt P31645).
T1 construct: expressed in transfected cells; host or cells: HEK293 membranes
The experiment in a line: Human SERT binding (3H-citalopram displacement). The settings on record: HEK293 membranes expressing human SERT, rt 1 h. As to the method: Homogenized HEK293 (Human Embryonic Kidney) membranes expressing the human SERT were incubated with ^3H-citalopram (SERT) at rt for 1 h in 50 mM Tris, 120 mM NaCl, 5 mM KCl (pH 7.4). […] The membranes were washed and the radioactivity was counted as above.

The next assay deals with T2, human H3 receptor (Homo sapiens, UniProt Q9Y5N1).
T2 construct: expressed in transfected cells
T2 sequence (Q9Y5N1 whole entry): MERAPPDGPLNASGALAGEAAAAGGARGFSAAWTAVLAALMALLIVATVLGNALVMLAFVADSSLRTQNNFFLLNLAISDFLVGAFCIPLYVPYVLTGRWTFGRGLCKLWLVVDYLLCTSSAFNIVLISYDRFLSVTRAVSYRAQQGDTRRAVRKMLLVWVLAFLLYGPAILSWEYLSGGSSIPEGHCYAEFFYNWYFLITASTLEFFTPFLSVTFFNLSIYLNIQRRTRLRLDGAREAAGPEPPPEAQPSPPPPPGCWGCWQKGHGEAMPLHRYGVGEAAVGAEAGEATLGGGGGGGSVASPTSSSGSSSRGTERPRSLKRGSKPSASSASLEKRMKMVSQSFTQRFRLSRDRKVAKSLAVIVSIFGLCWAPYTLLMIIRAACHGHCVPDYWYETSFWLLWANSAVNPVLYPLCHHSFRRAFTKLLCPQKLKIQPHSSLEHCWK
The experiment in a line: H3 receptor binding (N-[3H]-α-methylhistamine displacement). The following applies: membranes of SK-N-MC cells expressing cloned human H3 receptor, 0.8 nM N-[3H]-α-methylhistamine, 60 min at 25° C.

The target in a further assay is T3, Rat SERT (Rattus norvegicus, UniProt P31652).
T3 construct: A rat brain without cerebellum (Zivic Laboratories, Inc.—Pittsburgh, Pa.) was homogenized; tissue Zivic Laboratories, Inc; host or cells: rat brain without cerebellum, membranes
T3 sequence (P31652 whole entry): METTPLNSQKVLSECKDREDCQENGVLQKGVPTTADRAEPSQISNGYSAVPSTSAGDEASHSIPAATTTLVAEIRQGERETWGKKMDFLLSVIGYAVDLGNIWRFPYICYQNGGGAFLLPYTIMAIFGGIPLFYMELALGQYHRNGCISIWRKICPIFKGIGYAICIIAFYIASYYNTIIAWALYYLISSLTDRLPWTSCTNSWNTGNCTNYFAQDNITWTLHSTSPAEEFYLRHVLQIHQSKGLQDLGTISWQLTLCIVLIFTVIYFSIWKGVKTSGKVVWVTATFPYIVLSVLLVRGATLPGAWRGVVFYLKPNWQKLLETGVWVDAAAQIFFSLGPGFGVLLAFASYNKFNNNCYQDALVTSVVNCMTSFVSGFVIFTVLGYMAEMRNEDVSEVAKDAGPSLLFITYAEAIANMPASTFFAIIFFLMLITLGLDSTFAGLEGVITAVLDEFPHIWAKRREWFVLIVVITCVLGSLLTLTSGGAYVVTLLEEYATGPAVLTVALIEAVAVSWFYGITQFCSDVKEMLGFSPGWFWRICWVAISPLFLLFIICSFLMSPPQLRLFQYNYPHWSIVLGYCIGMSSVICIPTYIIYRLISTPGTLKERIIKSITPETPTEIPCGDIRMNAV
The experiment in a line: Rat brain SERT binding ([3H]-citalopram displacement). The following applies: rat brain membranes without cerebellum, 0.6 nM [3H]-citalopram, 60 min at 25° C. As to the method:
The supernatant was removed and re-centrifuged at 15,000 rpm for 30 min. […] Membranes were incubated with 0.6 nM [^3H]-Citalopram plus/minus test compounds for 60 min at 25° C. and harvested by rapid filtration over GF/C glass fiber filters (pretreated with 0.3% polyethylenimine) followed by four washes with ice-cold buffer.

T1 sequence (P31645 whole entry): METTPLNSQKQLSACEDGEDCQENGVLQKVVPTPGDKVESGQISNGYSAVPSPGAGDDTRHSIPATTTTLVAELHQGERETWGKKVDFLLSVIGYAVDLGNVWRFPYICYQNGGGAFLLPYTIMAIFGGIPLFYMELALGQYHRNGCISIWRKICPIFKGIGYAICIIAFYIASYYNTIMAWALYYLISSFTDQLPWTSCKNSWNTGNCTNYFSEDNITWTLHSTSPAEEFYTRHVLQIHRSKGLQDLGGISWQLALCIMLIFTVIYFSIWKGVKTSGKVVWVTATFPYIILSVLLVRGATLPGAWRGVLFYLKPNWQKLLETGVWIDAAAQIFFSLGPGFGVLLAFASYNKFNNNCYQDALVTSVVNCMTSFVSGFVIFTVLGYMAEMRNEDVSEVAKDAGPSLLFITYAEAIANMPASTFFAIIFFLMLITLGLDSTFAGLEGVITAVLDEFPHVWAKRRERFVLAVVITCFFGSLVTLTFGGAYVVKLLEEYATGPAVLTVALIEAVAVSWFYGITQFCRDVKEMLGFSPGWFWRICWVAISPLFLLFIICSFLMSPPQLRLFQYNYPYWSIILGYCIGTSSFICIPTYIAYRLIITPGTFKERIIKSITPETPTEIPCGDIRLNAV

The molecule `COc1ccc(C2CN(C)Cc3cc(OCCCN4CCCC(F)(F)C4)ccc32)cc1` (single isomer, unassigned) [Example 29A, 7-[3-(3,3-Difluoro-piperidin-1-yl)-propoxy]-4-(4-methoxy-phenyl)-2-methyl-1,2,3,4-tetrahydro-isoquinoline] showed a Ki on human SERT of 13 nM.

As to `CN1Cc2cc(OCCCN3CCC(F)CC3)ccc2C(c2ccc(OC(F)(F)F)cc2)C1` (centres unmarked) [Example 49, 7-[3-(4-Fluoro-piperidin-1-yl)-propoxy]-2-methyl-4-(4-trifluoromethoxy-phenyl)-1,2,3,4-tetrahydro-isoquinoline], the inhibition constant (Ki) was 18 nM at human H3 receptor and 14 nM at Rat SERT (read-out: Rat SERT Ki).

On to `CSc1ccc(C2CN(C)Cc3c2ccc(OCCCN2CCOCC2)c3C)cc1` (centres unmarked) [Example 172, 2,8-Dimethyl-4-(4-methylsulfanyl-phenyl)-7-(3-morpholin-4-yl-propoxy)-1,2,3,4-tetrahydro-isoquinoline], for which the results for the Ki on human H3 receptor and on Rat SERT (read-out: Rat SERT Ki) were 89 nM and 14 nM, respectively.

As to `CCN1CCC(COc2ccc3c(c2)CN(C)CC3c2ccc(SC)cc2)CC1` (centres unmarked) [Example 105, 7-(1-Ethyl-piperidin-4-ylmethoxy)-2-methyl-4-(4-methylsulfanyl-phenyl)-1,2,3,4-tetrahydro-isoquinoline], the figures for the Ki on human H3 receptor and at Rat SERT (read-out: Rat SERT Ki) were 5 nM and 6 nM, respectively.

Take `CN1Cc2cc(OCCCN3CCC(F)CC3)ccc2C(c2ccc(SC(F)(F)F)cc2)C1` (centres unmarked) [Example 217, 7-[3-(4-Fluoro-piperidin-1-yl)-propoxy]-2-methyl-4-(4-trifluoromethylsulfanyl-phenyl)-1,2,3,4-tetrahydro-isoquinoline]: the Ki at human H3 receptor amounted to 42 nM; on Rat SERT (read-out: Rat SERT Ki) it was 58 nM.

As to `COc1ccc(C2CN(C)Cc3cc(OCCCNCCCO)ccc32)cc1` (centres unmarked) [Example 226, 3-{3-[4-(4-Methoxy-phenyl)-2-methyl-1,2,3,4-tetrahydro-isoquinolin-7-yloxy]-propylamino}-propan-1-ol], the figures for the Ki on human H3 receptor and at Rat SERT (read-out: Rat SERT Ki) were 107 nM and 1 nM, respectively.

As for `CSc1ccc(C2CN(C)Cc3cc(OCCCN4CCOCC4)c(C)cc32)cc1` (centres unmarked) [Example 173, 2,6-Dimethyl-4-(4-methylsulfanyl-phenyl)-7-(3-morpholin-4-yl-propoxy)-1,2,3,4-tetrahydro-isoquinoline], the Ki on human H3 receptor is 15 nM; on Rat SERT (read-out: Rat SERT Ki), 18 nM.

Regarding `CCN1CCC(COc2ccc3c(c2)CN(C)CC3c2ccc(OC)cc2)CC1` (centres unmarked) [Example 87, 7-(1-Ethyl-piperidin-4-ylmethoxy)-4-(4-methoxy-phenyl)-2-methyl-1,2,3,4-tetrahydro-isoquinoline], the Ki on human H3 receptor amounted to 2 nM; at Rat SERT (read-out: Rat SERT Ki), 4 nM.

As for `COc1ccc(C2CN(C)Cc3cc(OCC4CCN(C(C)C)CC4)ccc32)cc1F` (centres unmarked) [Example 89, 4-(3-Fluoro-4-methoxy-phenyl)-7-(1-isopropyl-piperidin-4-ylmethoxy)-2-methyl-1,2,3,4-tetrahydro-isoquinoline], the Ki at human H3 receptor was 2 nM; on Rat SERT (read-out: Rat SERT Ki), 5 nM.

As to `COc1ccc(C2CN(C)Cc3cc(OC4CCN(C(C)C)CC4)ccc32)cc1F` (centres unmarked) [Example 120, 4-(3-Fluoro-4-methoxy-phenyl)-7-(1-isopropyl-piperidin-4-yloxy)-2-methyl-1,2,3,4-tetrahydro-isoquinoline], the Ki on human H3 receptor was determined as 1 nM; at Rat SERT (read-out: Rat SERT Ki), 10 nM.

With `CN1Cc2cc(OCCCN3CCC(F)CC3)ccc2C(c2ccc(C#C[Si](C)(C)C)nc2)C1` (centres unmarked) [Example 189, 7-[3-(4-Fluoro-piperidin-1-yl)-propoxy]-2-methyl-4-(6-trimethylsilanylethynyl-pyridin-3-yl)-1,2,3,4-tetrahydro-isoquinoline], the Ki was 12 nM on human H3 receptor and 108 nM at Rat SERT (read-out: Rat SERT Ki).

For the molecule `CCN1CCC(Oc2ccc3c(c2)CN(C)CC3c2cccc(OC)c2)CC1` (centres unmarked) [Example 100, 7-(1-Ethyl-piperidin-4-yloxy)-4-(3-methoxy-phenyl)-2-methyl-1,2,3,4-tetrahydro-isoquinoline], the figures for the Ki on human H3 receptor and at Rat SERT (read-out: Rat SERT Ki) were 2 nM and 10 nM, respectively.

Turning to `COc1ccc(C2CN(C)Cc3cc(OCCC4CCCN4C)ccc32)cc1` (single isomer, unassigned) [Example 240B, 4-(4-Methoxy-phenyl)-2-methyl-7-[2-(1-methyl-pyrrolidin-2-yl)-ethoxy]-1,2,3,4-tetrahydro-isoquinoline], the Ki on human H3 receptor amounted to 21 nM; at Rat SERT (read-out: Rat SERT Ki) it was 5 nM.

For `CCCN1CCC(COc2ccc3c(c2)CN(C)CC3c2ccc(OC)c(Cl)c2)CC1` (centres unmarked) [Example 108, 4-(3-Chloro-4-methoxy-phenyl)-2-methyl-7-(1-propyl-piperidin-4-ylmethoxy)-1,2,3,4-tetrahydro-isoquinoline], the Ki on human H3 receptor came out at 12 nM; at Rat SERT (read-out: Rat SERT Ki) it was 13 nM.

As to `CN1Cc2cc(OCCCN3CCC(F)CC3)ccc2C(c2ccc(Sc3ncccn3)nc2)C1` (centres unmarked) [Example 196, 7-[3-(4-Fluoro-piperidin-1-yl)-propoxy]-2-methyl-4-[6-(pyrimidin-2-ylsulfanyl)-pyridin-3-yl]-1,2,3,4-tetrahydro-isoquinoline], the values for the inhibitory constant (Ki) at human H3 receptor and on Rat SERT (read-out: Rat SERT Ki) were 4 nM and 2000 nM, respectively.

Turning to `C[C@H]1COCCN1CCCOc1ccc2c(c1)CN(C)CC2c1ccc(N2CCOCC2)cc1` (stereo partly drawn) [Example 133, 2-Methyl-7-[3-(3S-methyl-morpholin-4-yl)-propoxy]-4-(4-morpholin-4-yl-phenyl)-1,2,3,4-tetrahydro-isoquinoline], the figures for the Ki at human H3 receptor and on Rat SERT (read-out: Rat SERT Ki) were 2 nM and 50 nM, respectively.

In the case of `COc1ccc(C2CN(C)Cc3cc(OCC(F)CN4CCC(F)CC4)ccc32)cc1` (centres unmarked) [Example 43, 7-[2-Fluoro-3-(4-fluoro-piperidin-1-yl)-propoxy]-4-(4-methoxy-phenyl)-2-methyl-1,2,3,4-tetrahydro-isoquinoline], the Ki at human H3 receptor stood at 18 nM; at Rat SERT (read-out: Rat SERT Ki) it was 3 nM.

On to `COc1ccc(C2CN(C)Cc3cc(OC[C@@H]4CN(C5CC5)CCO4)ccc32)cc1` (mixture of isomers) [Example 260, 7-(4-Cyclopropyl-morpholin-2S-ylmethoxy)-4-(4-methoxy-phenyl)-2-methyl-1,2,3,4-tetrahydro-isoquinoline], for which the Ki on human H3 receptor amounted to 3 nM; on Rat SERT (read-out: Rat SERT Ki) it was 29 nM.

As for `COc1ccc(C2CN(Cc3ccccc3)Cc3cc(OCCCN4CCCCC4)ccc32)cc1` (centres unmarked) [Example 65, 2-Benzyl-4-(4-methoxy-phenyl)-7-(3-piperidin-1-yl-propoxy)-1,2,3,4-tetrahydro-isoquinoline], the Ki was determined as 7 nM at human H3 receptor and 3000 nM at Rat SERT (read-out: Rat SERT Ki).

In the case of `CCCN1Cc2cc(OCCCN3CCCCC3)ccc2C(c2ccc(OC)cc2)C1` (centres unmarked) [Example 67, 4-(4-Methoxy-phenyl)-7-(3-piperidin-1-yl-propoxy)-2-propyl-1,2,3,4-tetrahydro-isoquinoline], the Ki was determined as 0.5 nM at human H3 receptor and 104 nM at Rat SERT (read-out: Rat SERT Ki).

For `COc1ccc(C2CN(C)Cc3cc(OCCCNCC(C)C)ccc32)cc1` (centres unmarked) [Example 228, Isobutyl-{3-[4-(4-methoxy-phenyl)-2-methyl-1,2,3,4-tetrahydro-isoquinolin-7-yloxy]-propyl}-amine], the Ki came to 38 nM at human H3 receptor and 1 nM at Rat SERT (read-out: Rat SERT Ki).

Consider `COc1ccc(C2CN(C)Cc3cc(OCCCN=C4N(C)CCCN4C)ccc32)cc1` (centres unmarked) [Example 15, (1,3-Dimethyl-tetrahydro-pyrimidin-2-ylidene)-{3-[4-(4-methoxy-phenyl)-2-methyl-1,2,3,4-tetrahydro-isoquinolin-7-yloxy]-propyl}-amine], for which the Ki on human H3 receptor came to 499 nM; at Rat SERT (read-out: Rat SERT Ki) it was 11 nM.

For the molecule `COc1cccc(C2CN(C)Cc3cc(OC4CCN(C5CCCC5)CC4)ccc32)c1` (centres unmarked) [Example 101, 7-(1-Cyclopentyl-piperidin-4-yloxy)-4-(3-methoxy-phenyl)-2-methyl-1,2,3,4-tetrahydro-isoquinoline], the values for the Ki on human H3 receptor and at Rat SERT (read-out: Rat SERT Ki) were 2 nM and 18 nM, respectively.

With `CN1Cc2cc(OCCCN3CCC(F)CC3)ccc2C(c2ccc(Cl)cc2Cl)C1` (centres unmarked) [Example 54, 4-(2,4-Dichloro-phenyl)-7-[3-(4-fluoro-piperidin-1-yl)-propoxy]-2-methyl-1,2,3,4-tetrahydro-isoquinoline], the Ki was found to be 16 nM at human H3 receptor and 32 nM at Rat SERT (Rat SERT Ki (nM)).

As for `CCCNCCCOc1ccc2c(c1)CN(C)CC2c1ccc(OC)cc1` (centres unmarked) [Example 231, {3-[4-(4-Methoxy-phenyl)-2-methyl-1,2,3,4-tetrahydro-isoquinolin-7-yloxy]-propyl}-propyl-amine], the Ki on human H3 receptor is 61 nM; on Rat SERT (read-out: Rat SERT Ki) it was 2 nM.

With `COc1ccc(C2CN(C)Cc3cc(OCC4CN(C)CCO4)ccc32)cc1` (mixture of isomers) [Example 251, 4-(4-Methoxy-phenyl)-2-methyl-7-(4-methyl-morpholin-2-ylmethoxy)-1,2,3,4-tetrahydro-isoquinoline], the values for the inhibition constant (Ki) at human H3 receptor and on Rat SERT (read-out: Rat SERT Ki) were 67 nM and 12 nM, respectively.

`COc1ccc(C2CN(C)Cc3cc(OCC4CN(CCF)CCO4)ccc32)cc1` (mixture of isomers) [Example 258, 7-[4-(2-Fluoro-ethyl)-morpholin-2-ylmethoxy]-4-(4-methoxy-phenyl)-2-methyl-1,2,3,4-tetrahydro-isoquinoline]: the Ki is 32 nM at human H3 receptor and 8 nM at Rat SERT (read-out: Rat SERT Ki).
